This is an account of results in patent US20200148937A1, “INHIBITING HYDROCARBON HYDRATE AGGLOMERATION” (COMMONWEALTH SCIENTIFIC AND INDUSTRIAL RESEARCH ORGANISATION, priority 2017, published 2020).

This data set in a line: X-ray diffraction of the gas hydrates formed. The format is physicochemical. The following applies: systems 1-3; combination of structure I and structure II hydrate in all three systems. The source says:
FIG. 17(a) illustrates the X-ray diffraction pattern of the gas hydrates formed in systems 1-3.
The diffraction studies indicate that regardless of the nature of the AA used the XRD pattern of the solids formed are very similar indicating essentially the same hydrate mixtures are formed in each of systems 1-3. In short, there is a combination of structure I and structure II hydrate formed in all three systems considered.

As to `Cc1c(C)c2c(c(C)c1OC(=O)CCC(=O)O)CCC(C)(CCCC(C)CCCC(C)CCCC(C)CCCC(C)C)O2` (stereo not shown) [tocopherol succinate], the “effect on structure of the hydrate formed (XRD pattern)” value is given as “does not alter the structure of the hydrate formed”.
